The source of these data is EP4375289A1, “PEPTIDE WITH ANTIMICROBIAL ACTIVITY” (Freie Universität Berlin, priority 2022, dated 2024).

Square brackets hold non-standard residues; d marks the D form. Peptide text beside a SMILES is read from it. 2Abz = Nc1ccccc1C(=O)O; Abu = CC[C@H](N)C(=O)O

A short description of data set [1]: Peptide-induced membrane disrupting activity. It is filed as biochemical. Particulars: artificial phospholipid membranes at physiological pH. On the procedure:
Peptide-induced membrane disrupting activity was determined before by calculation of EC50 values and an increase in bioactivity with a growing degree of side chain fluorination was found.

The subject of a further data set is red blood cells. It is filed as cell-based. Particulars: data not shown. As for the experimental part:
Hemolysis assays were performed on red blood cells and cytotoxicity tests with two cell lines (HeLa, A549). No potent hemolytic activity for all peptides up to a concentration of 250 µg/mL, corresponding to concentrations of 140 µM (AbuR14) - 125 µM (TfeGlyR14) was determined (data not shown).

The subject of the next data set is E. coli. The data set can be described thus: Minimum inhibitory concentration (MIC) assay, CLSI broth dilution. The class given is cell-based. The conditions noted are these: E. coli ATCC 25922. As for the experimental part: (§1) Minimum inhibitory concentrations (MIC) assays were performed according to Clinical and Laboratory Standards Institute (CLSI) recommendations in cation-adjusted Mueller-Hinton broth (Mueller-Hinton II) broth in flat-bottomed, 96-well plates (Corning, Wiesbaden, Germany) with an inoculum of 10^5 bacteria/well and incubated at 37°C overnight. The optical density of the cultures was determined at 460 and 600 nm immediately after inoculation and after overnight incubation using a BioTek Synergy HT plate reader. Controls included bacterial strains, medium alone and wells without peptide additions. A serial dilution of each peptide was done before bacteria addition. A serial dilution of media including the respective peptide solvent without peptides supplement (Dimethylsulfoxid; Sigma-Aldrich, Taufkirchen, Germany or 1 x phosphate buffered saline; Biochrom, Berlin, Germany) functions as control to ensure the solvent influence on growth.
In general terms: Dilution methods test growth across graded concentrations, often in twofold steps.

In the next data set the test system is E. faecalis. The data set is described as above. It is filed as cell-based. Particulars: E. faecalis ATCC 29212. As for the experimental part: as §1
Another data set deals with K. pneumoniae. Described as above. It is filed as cell-based. Particulars: K. pneumoniae ATCC 700603. As for the experimental part: as §1
In the next data set the test system is P. aeruginosa. The data set is described as above. It is filed as cell-based. The conditions noted are these: P. aeruginosa ATCC 27853. On the procedure:
as §1

The test system of a further data set is S. Typhimurium. The data set is described as above. It is filed as cell-based. The conditions noted are these: S. Typhimurium ATCC 14028. On the procedure: as §1
For the next data set, the system named is S. aureus. The description is as above. The class given is cell-based. The conditions noted are these: S. aureus ATCC 29213. As for the experimental part: as §1
A further data set concerns C. albicans. The data set is described as above. The conditions noted are these: C. albicans IMT 9655. It is filed as cell-based.

A word on the EC50: it is the midpoint of the concentration-response curve. Lower therefore signals higher potency in that assay. `CC(C)C[C@@H](NC(=O)[C@H](CCCNC(=N)N)NC(=O)[C@H](Cc1c[nH]c2ccccc12)NC(=O)[C@H](CCCNC(=N)N)NC(=O)[C@@H](NC(=O)[C@@H](N)CCCNC(=N)N)C(C)C)C(=O)N[C@H](Cc1ccccc1)C(=O)Nc1ccccc1C(=O)N[C@H](C)C(=O)N[C@@H](CCCNC(=N)N)C(=O)N[C@@H](Cc1c[nH]c2ccccc12)C(=O)N[C@@H](CCCNC(=N)N)C(=O)N[C@H](C(=O)N[C@@H](CCCNC(=N)N)C(=O)O)C(C)C` [SAJO-2, H-R-Val-R-Trp-R-[I-f-[2]Abz-a]-R-Trp-R-Val-R-OH, reference compound] (H-RVRWR[dL][dF][2Abz][dA]RWRVR-OH; N-terminus and C-terminus assumed) came in with an EC50 in data set [1] of 70 µM. Further, the “peptide-induced hemolysis at minimum concentrations” value in the data set on red blood cells (red blood cells) was no less than 0.5 mg/mL.

In the case of `CC[C@H](NC(=O)[C@H](CCCNC(=N)N)NC(=O)[C@H](CC)NC(=O)[C@H](CCCNC(=N)N)NC(=O)[C@@H](C)NC(=O)c1ccccc1NC(=O)[C@@H](Cc1ccccc1)NC(=O)[C@@H](CC(C)C)NC(=O)[C@H](CCCNC(=N)N)NC(=O)[C@H](CC)NC(=O)[C@H](CCCNC(=N)N)NC(=O)[C@H](CC)NC(=O)[C@H](CCCNC(=N)N)NC(C)=O)C(=O)N[C@@H](CCCNC(=N)N)C(N)=O` [AbuR14, Ac-R-Abu-R-Abu-R-[I-f-[2]Abz-a]-R-Abu-R-Abu-R-NH2] (Ac-R[Abu]R[Abu]R[dL][dF][2Abz][dA]R[Abu]R[Abu]R-NH2), the “1*MIC” value was 128 mg/L in the data set on E. coli; 512 mg/L with E. faecalis; no less than 1024 mg/L with K. pneumoniae; no less than 1024 mg/L with P. aeruginosa; 256 mg/L in the data set on S. Typhimurium; no less than 1024 mg/L with S. aureus. For the same compound, the “1*MIC” value in the data set on C. albicans amounted to 512 mg/L. In [1], the response was half-maximal at 148 µM (EC50). Further, in the data set on red blood cells (corresponding to 250 µg/mL), the “No potent hemolytic activity up to a concentration (corresponding concentration)” value was greater than 140 µM.
